Among the data in patent EP0172632B1, “Benzopyrano[4,3,2-cd]indazole compounds, processes for their production and pharmaceutical compositions comprising the compounds” (WARNER-LAMBERT COMPANY, priority 1984, dated 1986) are IC50, MIC and response vs control in vivo values, retold here.

Test [1] concerns L1210 cells. As to the kind of experiment: L1210 in vitro cell growth inhibition. The class given is cell-based. As to conditions: Mus musculus, 72 h; L1210 murine leukemia cells, three days incubation, 50% inhibition of growth; read-out: L1210 in vitro ID50. Here is the method: Another test protocol uses L1210 cells, a murine leukemia cell line, grown in RPMI 1640 supplemented with 5% fetal bovine serum and gentamicin ([…]). Drug dilutions are prepared in the appropriate solvent and 20 µl of each dilution are added to 24-well Linbro tissue culture plates, followed by the addition of 2.0 ml of cell suspension containing 3 x 10^4 cells per ml. Solvent and medium controls are included in each test. After incubation at 37°C for three days in 5% CO2, the contents of each well are removed and the cells counted in a ZBI Counter counter. Percent growth are calculated relative to the controls and the levels of drug activity are expressed as ID50 in moles per liter.

Test [2] deals with Corynebacterium Sp. ATCC 21698. Nature of the test: in vitro antibacterial (ABMF) microdilution susceptibility test. The test is classed as cell-based. As to conditions: ATCC21698, Mueller-Hinton broth microdilution, 37°C, 16-24 hours, read-out: ABMF Minimal Inhibitory Concentration (µ/ml) Coryn. sp. The source says:
(§1) Still another test protocol is the in vitro antibacterial (ABMF) test which is a recognized standard microdilution susceptibility procedure in Mueller-Hinton broth against Gram-positive and Gram-negative bacterial test organisms. The procedure is a modification of a state-of-the-art procedure reported in Manual of Clinical Microbiology, Lennette, E. H., ed., by Barry, A. L. and C. Thornsberry at pages 463-474 and by Gavan, T. L. and A. L. Barry at pages 459―462, American Society for Microbiology, Washington, 1980.
(§2) In the test, a given bacterial culture is used to inoculate individual test wells of microdilution trays containing growth medium and test compound, the latter in a microdilution series: 1000, 333.111, 37,12, 4, 1.4, and 0.46 micrograms per milliliter. […] For convenience, values are reported for Escherichia coli, Corynebacterium Sp. ATCC 21698, Salmonella typhimurium, Streptococcus pneumoniae, and Rhodotorula aurantiaca.
Background: Broth dilution looks for growth in wells or tubes with falling amounts of substance.

The test system of test [3] is Escherichia coli. The test is described as above. The class given is cell-based. As to conditions: read-out: ABMF Minimal Inhibitory Concentration (µ/ml) E. coli.
Description: as §1, §2

Test [4] deals with Streptococcus pneumoniae. Described as above. The test is classed as cell-based. As to conditions: Mueller-Hinton broth microdilution, 37°C, 16-24 hours, read-out: ABMF Minimal Inhibitory Concentration (µ/ml) S. pneum.
Description: as §1, §2

Test [5] relates to Salmonella typhimurium. The description is as above. The test is classed as cell-based. As to conditions: Salmonella enterica, Mueller-Hinton broth microdilution, 37°C, 16-24 hours, read-out: ABMF Minimal Inhibitory Concentration (µ/ml) S. typh.
Description: as §1, §2

Test [6] deals with Rhodotorula aurantiaca. Described as above. As to conditions: Buckleyzyma aurantiaca, read-out: ABMF Minimal Inhibitory Concentration (µ/ml) R. aurant. The class given is cell-based.
Description: as §1, §2

The test system of test [7] is lymphocytic leukemia P388. Nature of the test: in vivo lymphocytic leukemia P388 test. As to conditions: Mus musculus, P388, ip, 120 h, mice, survival time treated/control, read-out: P388 in vivo T/C×100; for response vs control in vivo at 25 mg/kg: Dose 25 mg/kg intraperitoneally once daily for five days; for response vs control in vivo at 50 mg/kg: Dose 50 mg/kg intraperitoneally once daily for five days; for response vs control in vivo at 100 mg/kg: Dose 100 mg/kg intraperitoneally once daily for five days; for response vs control in vivo at 12.5 mg/kg: Dose 12.5 mg/kg intraperitoneally once daily for five days; for response vs control in vivo at 6.25 mg/kg: Dose 6.25 mg/kg intraperitoneally once daily for five days. As for the experimental part: Another test protocol is the in vivo lymphocytic leukemia P388 test. The animals used are either male or female CD2F, mice. There are six or seven animals per test group. The tumor transplant is by intraperitoneal injection of dilute ascitic fluid containing cells of lymphocytic leukemia P388. The test compounds are administered intraperitoneally once daily for five consecutive days at various doses following tumor inoculation. The animals are weighed and survivors are recorded on a regular basis for 30 days. A compound is designated "toxic" if, at a given dose, all animals died prior to four days after the first injection of drug. A ratio of survival time for treated (T)/control (C) animals is calculated. A criterion for efficacy is a ratio T/C times 100 greater than or equal to 125. See Cancer Chemotherapy Reports, Part 3, 3, 1 (1972) for a comprehensive discussion of the protocol.

Setting [8] is: Mueller-Hinton broth microdilution, 37°C, 16-24 hours.

SMILES strings stand for the structures. Converted amounts (≈) assume the structure as drawn. Structures can show the parent of a compound that is named as a salt. Where two headings read alike, the source gives them in different places.

Take `CCN(CC)CCn1nc2c3c(c([N+](=O)[O-])ccc31)Oc1ccc(OC)cc1-2` [Example 5, N,N-Diethyl-9-methoxy-5-nitro-2H-[1]benzopyrano-[4,3,2-cd]indazole-2-ethanamine, methanesulfonate (1: 1)]: the IC50 in test [1] is 920 nM. Besides, the MIC in test [2] was less than 0.46 µg/mL; in test [3] (setting [8]), less than 0.46 µg/mL; in test [4] it was less than 0.46 µg/mL; in test [5] it was 111 µg/mL; in test [6], 111 µg/mL. The response vs control in vivo at 25 mg/kg in test [7] worked out at 126%. Further, the response vs control in vivo at 50 mg/kg in test [7] was 148%. In addition, in test [7], the response vs control in vivo at 100 mg/kg was 192%.
Regarding `CCN(CC)CCn1nc2c3c(c(NCCN)ccc31)Oc1ccc(OC)cc1-2` [Example 6, 1-[2-[2-(Diethylamino)ethyl]-9-methoxy-2H-[1]benzopyrano-[4,3,2-cd]ndazole-5-yl]-1,2-ethanediamine, trihydrobromide], the IC50 in test [1] is 1100 nM. The MIC in test [2] amounted to 4.1 µg/mL; in test [3] it was 111 µg/mL; in test [4] it was 12.3 µg/mL; in test [5] it was 111 µg/mL; in test [6] (setting [8]), 333 µg/mL. Besides, the response vs control in vivo at 12.5 mg/kg in test [7] was 154%. Moreover, in test [7], the response vs control in vivo at 25 mg/kg is 145%.
Turning to `COc1ccc2c(c1)-c1nn(CCCN(C)C)c3ccc([N+](=O)[O-])c(c13)O2` [Example 7, 9-Methoxy-N,N-dimethyl-5-nitro-2H-[1]benzopyrano[4,3,2-cd]indazole-2-propanamine, methanesulfonate (1:1.17)], the IC50 in test [1] worked out at 580 nM. The MIC is less than 0.46 µg/mL in test [2]; 4.1 µg/mL in test [3] (setting [8]); less than 0.46 µg/mL in test [4]; 111 µg/mL in test [5]; 1000 µg/mL in test [6] (setting [8]). In addition, in test [7], the response vs control in vivo at 50 mg/kg was found to be 134%. Besides, the response vs control in vivo at 100 mg/kg in test [7] is 159%. The response vs control in vivo at 200 mg/kg in test [7] (Dose 200 mg/kg intraperitoneally once daily for five days) is 218%.
As to `COc1ccc2c(c1)-c1nn(CCN3CCCC3)c3ccc([N+](=O)[O-])c(c13)O2.Cl` [Example 8, 9-Methoxy-5-nitro-2-[2-(1-pyrrolidinyl)ethyl]-2H-[1]benzopyrano[4,3,2-cd]indazole, monohydrochloride], in test [1], the IC50 amounted to 2000 nM. In addition, the MIC in test [2] was less than 0.46 µg/mL; in test [3] (setting [8]), more than 1000 µg/mL; in test [4] it was less than 0.46 µg/mL; in test [5] it was 37 µg/mL; in test [6] (setting [8]), 111 µg/mL.
In the case of `COc1ccc2c(c1)-c1nn(CCN3CCCC3)c3ccc(N)c(c13)O2` [Example 9, 9-Methoxy-2-[2-(1-pyrrolidinyl)ethyl]-2H-[1]benzopyrano[4,3,2-cd]indazole-2-amine, monohydrochloride], in test [1], the IC50 came out at 360 nM. Moreover, the MIC in test [2] was determined as 4.1 µg/mL; in test [3] (setting [8]) it was 12.3 µg/mL; in test [4] it was 4.1 µg/mL; in test [5], 111 µg/mL; in test [6] (setting [8]) it was 333 µg/mL.
In the case of `O=[N+]([O-])c1ccc2c3c(nn2CCN2CCCC2)-c2cc(O)ccc2Oc13` [Example 10, 5-Nitro-2[2-(1-pyrrolidinyl)ethyl]-2H-[1]benzopyrano[4,3,2-cd]indazole-9-ol, methanesulfonate], the IC50 in test [1] is 3.5 nM. Also, the MIC in test [2] was less than 0.46 µg/mL; in test [3] (setting [8]) it was more than 1000 µg/mL; in test [4], less than 0.46 µg/mL; in test [5] it was 1.4 µg/mL; in test [6] (setting [8]) it was 1000 µg/mL.
In the case of `CN(C)CCCn1nc2c3c(c([N+](=O)[O-])ccc31)Oc1ccc(O)cc1-2.CS(=O)(=O)O` [Example 11, 9-Hydroxy-N,N-dimethyl-5-nitro-2H-[1]benzopyrano[4,3,2-cd]indazole-2-propanamine, methanesulfonate (1:1)], the IC50 in test [1] turned out to be 15 nM. Further, the MIC in test [2] was less than 0.46 µg/mL; in test [3] (setting [8]), less than 0.46 µg/mL; in test [4] it was less than 0.46 µg/mL; in test [5] it was 12.3 µg/mL; in test [6] (setting [8]) it was 1000 µg/mL. Moreover, the response vs control in vivo at 6.25 mg/kg in test [7] was found to be 150%. Also, the response vs control in vivo at 12.5 mg/kg in test [7] came out at 200%. Further, the response vs control in vivo at 25 mg/kg in test [7] turned out to be 226%.
Regarding `CCN(CC)CCn1nc2c3c(c(N)ccc31)Oc1ccc(O)cc1-2.Cl.Cl` [Example 12, 5-Amino-N,N-diethyl-9-hydroxy-2H-[1]benzopyrano[4,3,2-cd]indazole-2-ethanamine, dihydrochloride], in test [1], the IC50 was 71 nM. The MIC in test [2] is 12.3 µg/mL; in test [3], 111 µg/mL; in test [4], 12.3 µg/mL; in test [5] it was 111 µg/mL; in test [6] (setting [8]), more than 1000 µg/mL. For the same compound, in test [7], the response vs control in vivo at 6.25 mg/kg amounted to 167%. In addition, the response vs control in vivo at 12.5 mg/kg in test [7] is 201%. Further, the response vs control in vivo at 25 mg/kg in test [7] was found to be 192%.
Take `CCN(CC)CCn1nc2c3c(c(NC(=O)CNCCO)ccc31)Oc1ccc(O)cc1-2.Cl` [Example 13, N-[2-[2-(Diethylamino)ethyl]-9-hydroxy-2H-[1]benzopyrano[4,3,2-cd]indazole-5-yl]-2-[(2-hydroxyethyl)-amino]acetamide, hydrochloride]: the IC50 in test [1] worked out at 5.7 nM. The MIC in test [2] was 333 µg/mL; in test [3] (setting [8]), 111 µg/mL; in test [4], 333 µg/mL; in test [5] it was more than 1000 µg/mL; in test [6] (setting [8]), more than 1000 µg/mL. Moreover, the response vs control in vivo at 25 mg/kg in test [7] was 198%. For the same compound, the response vs control in vivo at 50 mg/kg in test [7] was 227%. For the same compound, the response vs control in vivo at 100 mg/kg in test [7] was determined as 272%.
As for `CCN(CC)CCn1nc2c3c(c(NCCNCCO)ccc31)Oc1ccc(O)cc1-2` [Example 14], in test [1], the IC50 worked out at 48 nM. Also, the MIC in test [2] is 33 µg/mL (≈ 77.5 µM); in test [3] (setting [8]), 11 µg/mL (≈ 25.8 µM); in test [4], 11 µg/mL (≈ 25.8 µM); in test [5], more than 33 µg/mL; in test [6] (setting [8]), more than 33 µg/mL. For the same compound, the response vs control in vivo at 6.25 mg/kg in test [7] is 236%. Moreover, in test [7], the response vs control in vivo at 12.5 mg/kg was 272%.
`CCN(CC)CCn1nc2c3c(c([N+](=O)[O-])ccc31)Oc1cc(OC)ccc1-2` [Example 19, 5-Nitro-2-[2-(diethylamino)ethyl]-8-methoxy-2H [1]benzopyrano[4,3,2-cd]indazol, hydrochloride]: the IC50 in test [1] is 2200 nM. The MIC was less than 0.46 µg/mL in test [2]; less than 0.46 µg/mL in test [3] (setting [8]); less than 0.46 µg/mL in test [4]; 37 µg/mL in test [5]; 333 µg/mL in test [6] (setting [8]).
On to `CCN(CC)CCn1nc2c3c(c([N+](=O)[O-])ccc31)Oc1cc(O)ccc1-2` [Example 20, 5-Nitro-2-[2-(diethylamino)ethyl]-2H-[1]benzopyrano[4,3,2-cd]indazol-8-0l, hydrochloride], for which the IC50 in test [1] was determined as 870 nM. Moreover, the MIC in test [2] is less than 0.46 µg/mL; in test [3] (setting [8]), 1.4 µg/mL; in test [4] it was less than 0.46 µg/mL; in test [5] it was 12.3 µg/mL; in test [6] (setting [8]), more than 1000 µg/mL.
